Here are results for 1 compound from publication PMC7613515, “Reading and erasing of the phosphonium analogue of trimethyllysine by epigenetic proteins” (Communications Chemistry, 2022).

This assay has as its target T1, SGF29TTD (R115–K293) (Homo sapiens, UniProt Q96ES7).
T1 construct: SGF29TTD (R115–K293); made in house; host or cells: E. coli
T1 sequence (Q96ES7 115-293): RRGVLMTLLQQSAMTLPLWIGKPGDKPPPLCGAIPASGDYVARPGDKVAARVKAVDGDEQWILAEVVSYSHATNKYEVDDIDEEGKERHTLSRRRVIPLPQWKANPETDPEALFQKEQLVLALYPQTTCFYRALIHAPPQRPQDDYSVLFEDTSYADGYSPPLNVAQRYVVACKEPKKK
Nature of the assay: ITC, association of histone H3 peptides with SGF29TTD. The assay is classed as binding. From the text: We investigated the thermodynamics of association of the H3KP4me3 peptide with five representative human reader domains containing either a PHD zinc finger or TTD, i.e. KDM5APHD3 (JARID1A-PHD3, residues M1489–V1641)[10], TAF3PHD (R857–K924)[22], BPTFPHD (L2583–N2751)[23], SGF29TTD (R115–K293)[24] and KDM4ATTD (JMJD2A, Q897-P1011)[25], selected on the basis of their preference for binding Ν^ε-trimethyllysine over other (non)methylation marks (Kme0 < Kme1 < Kme2 < Kme3), and their domain and aromatic cage diversity. The recombinant readers were produced in E. coli following reported procedures. Isothermal titration calorimetric (ITC) analyses were used to determine the dissociation constant (Kd), the Gibbs free energy of binding (ΔG°), the enthalpy of binding (ΔH°), and the entropy of binding (ΔS°). […] (Table 1, Fig. 2, Supplementary Fig. 1).
The following purified reader domains: TAF3PHD (R857-K924), KDM5APHD3 (JARID1A, M1489-V1641), BPTFPHD (L2583-N2751), KDM4ATTD (JMJD2A, Q897-P1011) and SGF29TTD (R115-K293) were prepared as reported[10],[22]–[26]. The histone lysine demethylase were produced and purified to high purity via reported procedures KDM3A (JMJD1A, T515-S1317)[41], KDM4AJmjC[39] (JMJD2A, M1-L359), KDM4EJmjC (JMJD2E, M1–Q337)[34] and KDM7B[40] (PHF8, M37-N483 [NP_001171]). KDM5DJmjC was produced using an N-terminal hexa-His tagged KDM4D (KDM4DM1-L358) DNA construct, transformed into BL21(DE3) competent cells for recombinant protein production. Colonies were used to inoculate of LB media (50 mL) containing kanamycin (50 µg·mL^−1) and chloramphenicol (34 µg·mL^−1), which was placed in a 37 °C shaker overnight. The starter culture (10 mL) was used to inoculate TB media (6 × 1 L) containing kanamycin (50 µg·mL^−1) in 2 L baffled shaker flasks. After reaching an of OD600 of ~0.8, the temperature was reduced to 18 °C; at OD600 ~0.9 the cells were induced by the IPTG (0.5 mM) addition. After shaking overnight, the culture was centrifuged (5000 rpm, 10 mins), the media was decanted, and the cell pellet was suspended in Lysis Buffer [HEPES (50 mM), NaCl (500 mM), imidazole (20 mM), glycerol (5%) and TCEP (0.5 mM) in water (pH 7.4)]. The suspension was lysed by passaging through a high-pressure cell breaker (Avestin – EmulsiFlex-C5) for three rounds. The lysate was cleared by centrifugation (60 minutes, 36,000 × g, 4 °C), then loaded onto a Ni NTA gravity column. After extensive rinsing of the Ni-NTA gravity column with lysis buffer, the His-tagged protein was eluted in lysis buffer containing 300 mM imidazole. The eluted protein was concentrated and subjected to gel filtration chromatography using an AKTA Xpress system, an S200 16/600 gel filtration column, and GF buffer [HEPES (50 mM), NaCl (150 mM), glycerol (5%) and TCEP (0.5 mM) in water (pH 7.4)]. The protein identity was verified by LC-MS (ESI-TOF) observing a mass of 43759.7 Da, in accord with the predicted mass of 43751.6 Da.
ITC studies followed a reported procedure. The buffer used corresponded to that used in the final protein purification step. […] Histone peptide titrations were performed with the same reader batches. Solutions of the reader in buffer (25–40 µM) and of the histone H3 peptide (350–600 µM) in buffer were prepared. […] Heats of dilution for histone peptides determined in control experiments were subtracted from the titration binding data. […]

[1] abbreviates: 25 °C, H3 1-10 peptide, pH 7.5, from 3 to 5 experiments, ± SD.

In the case of `C[C@H](N)C(=O)N[C@@H](CCCNC(=N)N)C(=O)N[C@H](C(=O)N[C@@H](CCCC[P+](C)(C)C)C(=O)N[C@@H](CCC(N)=O)C(=O)N[C@H](C(=O)N[C@@H](C)C(=O)N[C@@H](CCCNC(=N)N)C(=O)N[C@@H](CCCCN)C(=O)N[C@@H](CO)C(N)=O)[C@@H](C)O)[C@@H](C)O` [H3KP4me3], under setting [1], the “-TΔS°” value was 1.0 ± 0.1 kcal/mol, the “ΔG°” value was -7.6 ± 0.1 kcal/mol and the “ΔH°” value is -8.6 ± 0.1 kcal/mol. Further, the “binding affinity relative to H3K4me3” value (SGF29TTD) was “comparable binding affinity for H3K4me3 and H3KP4me3”.
